{"source": "patent US20200020099A1", "about": "“INFORMATION PROCESSING DEVICE, INFORMATION PROCESSING SYSTEM, AND INFORMATION PROCESSING METHOD” (SONY CORPORATION, priority 2017, published 2020)", "key": {"HL60 cell [1]": {"test_system": "HL60 cell", "assay": "Motion amount of the intracellular structure (motion vector analysis) from moving images", "type": "cell-based", "settings": "concentrations of 0.01 μM, 0.1 μM, 1 μM, and 10 μM, FIG. 7", "from_the_text": "More specifically, the analysis unit 121 extracts a motion vector between at least two imaged images having different imaging times. For example, the analysis unit 121 can extract a motion vector from a range designated by a user using a […], a gradient method, or the like. Note that the analysis unit 121 may extract a motion vector from the entire imaged image.\nThe length of a motion vector is a motion amount. The analysis unit 121 can calculate a motion amount (motion speed) of an intracellular structure per unit time from an interval (time) of the two imaged images from which the motion vector has been extracted. Note that in the present technology, the motion amount of the intracellular structure can be determined using an average value, a median value, a maximum value, a standard deviation, and the like of the lengths of the motion vectors.\nBy a similar method to Example 1 described above, the morphological change amounts (area change amounts and peripheral length change amounts) in a case where CCCP was added at concentrations of 0.01 μM, 0.1 μM, 1 μM, and 10 μM were calculated, respectively. Furthermore, a motion vector under similar conditions was calculated at an interval of about 1 μm, and a spatiotemporal average of the motion amounts (motion speeds) per unit time for each cell was calculated to create a color map. […]"}, "HL60 cell [2]": {"test_system": "HL60 cell", "assay": "Quantification of morphological change (area change amount, peripheral length change amount) from phase difference moving images", "type": "cell-based", "from_the_text": "An image (moving image) of an HL60 cell that had been differentiated and stimulated by adding 1% DMSO and performing culture for one week was imaged over time with a phase difference microscope under conditions that magnification of an objective lens was 60 times, an imaging interval was 27 frames/second, and imaging time was 60 seconds. FIG. 5 is an image illustrating cell boundary recognition and tracking according to Example 1. […] Thereafter, the cell boundary was tracked by matching the drawn solid line to a next image. Then, a cell area in the continuous image was tracked by repeating matching to the continuous image.\nThereafter, the area and the peripheral length were calculated from the tracked cell area, and an average of the areas, an average of the peripheral lengths, and change amounts thereof in the continuous image were calculated. Then, the change amount with respect to the average of the areas or peripheral lengths was calculated as the morphological change amount (area change amount and peripheral length change amount). This was used as Control. By a similar method, as for a case where 100 μM of a mitochondrial […] agent, carbonyl cyanide m-chlorophenylhydrazone (also simply referred to as “CCCP” here), which is a drug that inhibits intracellular metabolism, was added, the morphological change amount was calculated similarly. The upper drawing of FIG. 6 is a drawing-substituting graph illustrating an area change amount and a peripheral length change amount according to Example 1, and the lower drawing of FIG. 6 is an image illustrating cell boundary recognition and tracking in Control and in a case where CCCP is added according to Example 1."}, "[3]": {"settings": "100 μM added, differentiated HL60 cell (1% DMSO, one week), vs Control, FIG. 6"}, "[4]": {"settings": "concentrations of 0.01 μM, 0.1 μM, 1 μM, and 10 μM, HL60 cell, FIG. 7"}, "[5]": {"settings": "200 nM added, HL60 cell, vs Control, FIG. 10"}}}
{"smiles": "N#CC(C#N)=NNc1cccc(Cl)c1", "note": "[CCCP, carbonyl cyanide m-chlorophenylhydrazone]", "values": [{"measurement": "motion amount (vector analysis) of the intracellular structure", "setting": "HL60 cell [1]", "result": "concentration-dependent decrease"}, {"measurement": "area change amount", "setting": "HL60 cell [2]; [3]", "result": "significant decrease"}, {"measurement": "peripheral length change amount", "setting": "HL60 cell [2]; [3]", "result": "significant decrease"}, {"measurement": "area change amount", "setting": "HL60 cell [2]; [4]", "result": "concentration-dependent decrease"}, {"measurement": "peripheral length change amount", "setting": "HL60 cell [2]; [4]", "result": "concentration-dependent decrease"}]}
{"smiles": "C=C1[C@@H](C)[C@H]2[C@H](Cc3ccccc3)NC(=O)[C@]23[C@H](OC(C)=O)/C=C/[C@@](C)(O)C(=O)[C@@H](C)C/C=C/[C@H]3[C@@H]1O", "note": "[Cytochalasin D]", "values": [{"measurement": "area change amount", "setting": "HL60 cell [2]; [5]", "result": "significant decrease"}, {"measurement": "peripheral length change amount", "setting": "HL60 cell [2]; [5]", "result": "significant decrease"}]}
